Patent publication US8741602B2, “Method for producing glucuronic acid conjugate using Saccharomyces cerevisiae” (Toyama Prefecture, priority 2010, dated 2014)
Blank lines part the entries; values can stand above or below the molecule they belong to.

Tests used:
hUGT1A7 = molecular target: T1, hUGT1A7 (Homo sapiens, UniProt Q9HAW7); assay: Glucuronide production in resting S. cerevisiae AH22 cells co-expressing UDPGDH and UGT1A7; type: cell-based; details: UGT1A7 with At.UDPGDH; 7-hydroxycoumarine substrate, 30° C., 24 hrs
T1 construct: expressed in transfected cells; host or cells: Saccharomyces cerevisiae AH22
T1 sequence (Q9HAW7 26-530): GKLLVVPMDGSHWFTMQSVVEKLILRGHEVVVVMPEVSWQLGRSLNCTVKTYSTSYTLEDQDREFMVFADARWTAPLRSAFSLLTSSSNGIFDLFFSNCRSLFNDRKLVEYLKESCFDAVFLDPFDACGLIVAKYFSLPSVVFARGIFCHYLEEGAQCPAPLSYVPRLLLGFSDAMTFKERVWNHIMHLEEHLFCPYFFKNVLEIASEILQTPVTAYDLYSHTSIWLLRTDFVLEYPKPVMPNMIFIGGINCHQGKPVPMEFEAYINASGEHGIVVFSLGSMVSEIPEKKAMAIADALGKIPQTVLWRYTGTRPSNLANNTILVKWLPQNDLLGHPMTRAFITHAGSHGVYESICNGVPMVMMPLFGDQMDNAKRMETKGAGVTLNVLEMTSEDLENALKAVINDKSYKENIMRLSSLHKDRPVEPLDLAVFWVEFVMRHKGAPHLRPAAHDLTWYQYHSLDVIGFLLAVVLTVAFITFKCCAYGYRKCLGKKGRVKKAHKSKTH
Protocol: (§1) Each phase was analyzed by UPLC system.

UGT1A6 = molecular target: T2, UGT1A6 (Homo sapiens, UniProt P19224); assay: Glucuronide production in resting S. cerevisiae AH22 cells co-expressing UDPGDH and UGT1A6; type: cell-based; set-up: expressed in transfected cells; host or cells: Saccharomyces cerevisiae AH22
T2 sequence (P19224 27-532): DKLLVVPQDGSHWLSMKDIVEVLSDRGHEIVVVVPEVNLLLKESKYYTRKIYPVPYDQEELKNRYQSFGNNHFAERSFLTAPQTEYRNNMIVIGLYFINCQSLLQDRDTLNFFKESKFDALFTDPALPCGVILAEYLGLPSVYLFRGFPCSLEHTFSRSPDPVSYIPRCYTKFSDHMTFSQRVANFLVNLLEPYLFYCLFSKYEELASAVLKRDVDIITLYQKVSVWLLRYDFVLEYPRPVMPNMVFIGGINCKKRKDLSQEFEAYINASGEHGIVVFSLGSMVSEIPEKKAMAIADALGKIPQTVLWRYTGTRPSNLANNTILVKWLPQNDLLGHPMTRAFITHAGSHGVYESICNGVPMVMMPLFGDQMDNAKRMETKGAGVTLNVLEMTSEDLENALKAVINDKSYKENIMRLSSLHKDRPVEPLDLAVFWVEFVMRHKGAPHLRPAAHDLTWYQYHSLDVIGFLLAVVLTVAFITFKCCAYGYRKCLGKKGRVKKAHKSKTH
Protocol: as §1
Time course of conversion in the transformant with the highest activity of glucuronidation (AH22: pAUR/At.UDPGDH+pGYR/hUGT1A6) was examined (FIG. 6).
Glucose concentration dependence of conversion in the transformant with the highest activity of glucuronidation (AH22: pAUR/At.UDPGDH+pGYR/hUGT1A6) was examined (FIG. 7).

hUGT1A1 [1] = molecular target: T3, hUGT1A1 (Homo sapiens, UniProt P22309); assay: Glucuronide production in resting S. cerevisiae AH22 cells co-expressing UDPGDH and UGT1A1; details: UGT1A1 with At.UDPGDH; 7-hydroxycoumarine substrate, 30° C., 24 hrs
T3 sequence (P22309 28-533): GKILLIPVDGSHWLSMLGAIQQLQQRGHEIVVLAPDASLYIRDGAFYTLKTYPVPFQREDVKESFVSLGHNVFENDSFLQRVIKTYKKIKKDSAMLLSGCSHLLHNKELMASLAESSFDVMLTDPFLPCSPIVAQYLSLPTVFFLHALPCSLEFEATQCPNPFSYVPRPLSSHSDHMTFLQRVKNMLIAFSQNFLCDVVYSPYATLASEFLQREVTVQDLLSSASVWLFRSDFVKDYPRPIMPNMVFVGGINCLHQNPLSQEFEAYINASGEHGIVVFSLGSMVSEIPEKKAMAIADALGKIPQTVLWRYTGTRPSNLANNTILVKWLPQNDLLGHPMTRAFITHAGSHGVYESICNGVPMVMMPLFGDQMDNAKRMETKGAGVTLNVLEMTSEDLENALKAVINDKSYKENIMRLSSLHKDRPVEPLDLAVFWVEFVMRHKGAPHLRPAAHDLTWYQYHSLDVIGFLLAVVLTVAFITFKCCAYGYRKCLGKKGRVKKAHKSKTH
Protocol: (§2) To confirm the production of 7-hydroxycoumarine glucuronide in the resting yeast cells containing UDPGDH and UGT, transformants were cultivated in selection medium at 30° C., 48 hrs, and the resultant yeast cells were suspended with appropriate buffer solution containing 0.1-1 mM 7-hydroxycoumarine and 1-8% (w/v) glucose. After incubation at 30° C., 24 hrs, 2-fold volume of chloroform:methanol (3:1, v/v) was added to reaction medium containing yeast cells. Centrifugation of extracts was separated to upper water and lower organic phase. Lower organic phase were evaporated and redissolved in 200 μl acetonitrile. Each phase was analyzed by UPLC system. Condition of analysis are described below; column: Cosmosil 2.5C18-MS-II (2.0 mm×100 mm, nacalai tesque), flow rate 0.5 ml/min, detection 320 nm, temperature 45° C. Condition of gradient elution: water-acetonitrile with 0.5% (v/v) trifluoroacetic acid, 10% (v/v) acetonitrile (4 min), 10-70% acetonitrile (6 min), 70-10% acetonitrile (2 min), 10% acetonitrile (4 min).
(§3) To confirm the production of quercetin glucuronide in the resting yeast cells containing UDPGDH and UGT (pAUR/At.UDPGDH+pGYR/hUGT1A1), transformants were cultivated in selection medium at 30° C., 48 hrs, and the resultant yeast cells were suspended with 0.1 M potassium phosphate buffer (pH 7.4) containing 0.2 mM quercetin and 8% (w/v) glucose. After incubation at 30° C., 24 hrs, 2-fold volume of chloroform:methanol (3:1, v/v) was added to reaction medium containing yeast cells. Centrifugation of extracts was separated to upper water and lower organic phase. Lower organic phase were evaporated and redissolved in 200 μl acetonitrile. Quercetin glucuronides in yeast cells was isolated and detected by WAKOPAK™ Navi C30-5 (3 mm×150 mm, Wako Chemical)-column-HPLC system with followed condition; flow rate; 0.4 ml/min, detection; 370 nm, temperature 37° C. Condition of gradient elution: water-acetonitrile with 0.5% (v/v) phosphoric acid, 18% (v/v) acetonitrile (10 min), 18-55% acetonitrile (10 min), 55% acetonitrile (5 min).
(§4) To compare the production ability of glucuronide in budding (Saccharomyces cerevisiae) and fission yeast (Schizosaccharomyces pombe) containing UDPGDH and UGT, several transformants (No. 4 in Table 2 and transformant with N-terminal modified UGT1A1) were selected for the assay. These transformants were cultivated in selection medium at 30° C., 48 hrs, and the resultant yeast cells were suspended with appropriate buffer solution containing 0.5 mM 4-methylumberrferone and 8% (w/v) glucose. After incubation at 30° C., 24 hrs, 2-fold volume of chloroform:methanol (3:1, v/v) was added to reaction medium containing yeast cells. Centrifugation of extracts was separated to upper water and lower organic phase. Lower organic phase were evaporated and redissolved in 200 μl acetonitrile. Each phase was analyzed by UPLC system.
(§5) Condition of analysis are described below; column: COSMOSIL™ 2.5C18-MS-II (2.0 mm×100 mm, Nacalai Tesque), flow rate 0.5 ml/min, detection 320 nm, temperature 45° C. Condition of gradient elution: water-acetonitrile with 0.1% (v/v) trifluoroacetic acid, 10% acetonitrile (4 min), 10-70% acetonitrile (6 min), 70-10% acetonitrile (2 min), 10% acetonitrile (3 min).

hUGT1A9 = molecular target: T4, hUGT1A9 (Homo sapiens, UniProt O60656); assay: Glucuronide production in resting S. cerevisiae AH22 cells co-expressing UDPGDH and UGT1A9; type: cell-based
T4 construct: expressed in transfected cells; host or cells: Saccharomyces cerevisiae AH22
T4 sequence (O60656 26-530): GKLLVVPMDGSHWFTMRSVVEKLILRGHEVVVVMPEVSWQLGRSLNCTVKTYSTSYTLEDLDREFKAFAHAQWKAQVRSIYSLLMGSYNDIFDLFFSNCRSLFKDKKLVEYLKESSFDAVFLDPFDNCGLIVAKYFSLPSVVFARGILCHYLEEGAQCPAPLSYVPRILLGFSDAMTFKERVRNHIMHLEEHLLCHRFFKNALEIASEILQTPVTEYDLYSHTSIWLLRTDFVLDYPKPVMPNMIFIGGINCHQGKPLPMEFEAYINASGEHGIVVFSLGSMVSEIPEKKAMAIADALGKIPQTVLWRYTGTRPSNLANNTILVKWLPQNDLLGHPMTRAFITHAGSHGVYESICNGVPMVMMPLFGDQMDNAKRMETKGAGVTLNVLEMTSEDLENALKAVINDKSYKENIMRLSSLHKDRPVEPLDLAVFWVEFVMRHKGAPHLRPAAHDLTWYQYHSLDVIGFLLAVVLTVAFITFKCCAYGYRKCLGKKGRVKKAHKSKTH
Protocol: as §1

hUGT1A8 = molecular target: T5, hUGT1A8 (Homo sapiens, UniProt Q9HAW9); assay: Glucuronide production in resting S. cerevisiae AH22 cells co-expressing UDPGDH and UGT1A8; type: cell-based
T5 construct: expressed in transfected cells; host or cells: Saccharomyces cerevisiae AH22
T5 sequence (Q9HAW9 26-530): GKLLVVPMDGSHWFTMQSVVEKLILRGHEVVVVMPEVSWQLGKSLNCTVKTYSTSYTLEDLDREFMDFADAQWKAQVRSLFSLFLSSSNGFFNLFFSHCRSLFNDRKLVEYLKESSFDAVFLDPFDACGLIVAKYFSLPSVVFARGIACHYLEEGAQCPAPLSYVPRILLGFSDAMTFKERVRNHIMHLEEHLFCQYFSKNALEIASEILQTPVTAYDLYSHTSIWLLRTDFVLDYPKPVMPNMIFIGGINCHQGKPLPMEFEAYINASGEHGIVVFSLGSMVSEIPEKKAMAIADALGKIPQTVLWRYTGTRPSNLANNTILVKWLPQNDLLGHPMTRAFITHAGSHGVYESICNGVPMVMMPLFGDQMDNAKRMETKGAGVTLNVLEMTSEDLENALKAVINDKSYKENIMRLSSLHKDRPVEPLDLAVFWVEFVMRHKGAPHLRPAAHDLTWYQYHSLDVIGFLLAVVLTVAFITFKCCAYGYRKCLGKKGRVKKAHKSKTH
Protocol: as §1

UGT1A10 = molecular target: T6, UGT1A10 (Homo sapiens, UniProt Q9HAW8); assay: Acyl glucuronide production in resting S. cerevisiae cells co-expressing UDPGDH and UGT1A10; type: cell-based; details: 1 mM mefenamic acid
T6 construct: expressed in transfected cells; host or cells: Saccharomyces cerevisiae AH22
T6 sequence (Q9HAW8 26-530): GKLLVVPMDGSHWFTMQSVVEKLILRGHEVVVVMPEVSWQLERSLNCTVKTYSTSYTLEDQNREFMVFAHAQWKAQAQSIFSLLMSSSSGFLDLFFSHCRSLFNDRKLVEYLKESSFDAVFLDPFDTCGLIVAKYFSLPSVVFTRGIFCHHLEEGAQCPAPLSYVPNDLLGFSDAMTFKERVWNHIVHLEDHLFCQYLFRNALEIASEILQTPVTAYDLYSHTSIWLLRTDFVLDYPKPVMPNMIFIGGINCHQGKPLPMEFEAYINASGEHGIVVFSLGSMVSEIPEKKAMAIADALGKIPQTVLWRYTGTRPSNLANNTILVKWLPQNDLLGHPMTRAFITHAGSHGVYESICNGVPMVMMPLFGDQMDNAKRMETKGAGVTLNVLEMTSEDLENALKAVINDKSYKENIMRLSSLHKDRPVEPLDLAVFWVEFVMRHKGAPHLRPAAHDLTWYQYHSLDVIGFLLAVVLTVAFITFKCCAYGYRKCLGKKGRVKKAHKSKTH
Protocol: as §1

[2] = molecular target: T7, rat UDP-glucose dehydrogenase (Rattus norvegicus, UniProt O70199); assay: Production of UDP-glucuronic acid in yeast cells transformed with rat UDP-glucose dehydrogenase gene; type: cell-based; details: estimation of sugar nucleotide, FIG. 4 line C
T7 construct: confirmed the gene product from GenBank Acc; ID NO: 9; expressed in transfected cells; host or cells: Saccharomyces cerevisiae AH22
T7 sequence (O70199 1-493): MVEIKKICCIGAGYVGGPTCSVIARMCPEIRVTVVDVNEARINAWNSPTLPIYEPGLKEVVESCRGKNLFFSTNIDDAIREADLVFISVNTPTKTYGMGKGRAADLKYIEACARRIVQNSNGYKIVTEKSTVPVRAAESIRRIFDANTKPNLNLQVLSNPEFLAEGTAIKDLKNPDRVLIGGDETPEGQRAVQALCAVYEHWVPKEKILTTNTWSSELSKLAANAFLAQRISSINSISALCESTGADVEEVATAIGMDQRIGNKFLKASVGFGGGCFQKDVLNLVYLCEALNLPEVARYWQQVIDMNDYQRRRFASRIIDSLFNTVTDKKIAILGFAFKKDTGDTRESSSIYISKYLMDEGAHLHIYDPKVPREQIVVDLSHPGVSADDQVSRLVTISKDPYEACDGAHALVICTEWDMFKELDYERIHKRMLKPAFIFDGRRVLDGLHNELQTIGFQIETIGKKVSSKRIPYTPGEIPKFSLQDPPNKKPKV
Source text: Upper water phase of extracts were separated by centrifugation.

hUGT1A1 [3] = molecular target: T3, hUGT1A1; details: 24 h, 0.2 mM, pH 7.4
Protocol: as §2, §3, §4, §5

production of glucuronide (FIG. 5) (hUGT1A7): observed
production of glucuronide (FIG. 5) (UGT1A6; UGT1A6 with At.UDPGDH, 7-hydroxycoumarine substrate, 30° C., 24 hrs): observed
productivity of glucuronide (UGT1A6; optimal conditions, cells expressing UDPGDH and UGT1A6): 200 mg per liter of reaction solution
production of glucuronide (FIG. 5) (hUGT1A1 [1]): observed
production of glucuronide (FIG. 5) (hUGT1A9): observed
production of glucuronide (FIG. 5) (hUGT1A8; UGT1A8 with At.UDPGDH, 7-hydroxycoumarine substrate, 30° C., 24 hrs): observed
SMILES: O=C(O)[C@H]1O[C@@H](Oc2ccc3ccc(=O)oc3c2)[C@H](O)[C@@H](O)[C@@H]1O [glucuronide of 7-hydroxycoumarine, 7-hydroxycoumarine glucuronide]

SMILES: COc1c(C)c2c(c(O[C@@H]3O[C@H](C(=O)O)[C@@H](O)[C@H](O)[C@H]3O)c1C/C=C(\C)CCC(=O)O)C(=O)OC2 [mycophenolic acid glucuronide]
production of glucuronide (FIG. 10) (hUGT1A9; 0.2 mM mycophenolic acid, 8% glucose, 30° C., 24 hrs): confirmed

SMILES: COc1c(C)c2c(c(O[C@@H]3O[C@H](C(=O)O)[C@@H](O)[C@H](O)[C@H]3O)c1C/C=C(\C)CCC(=O)O)C(=O)OC2 [mycophenolic-O-glucuronide]
site of glucuronidation (FIG. 10) (hUGT1A9; 0.2 mM mycophenolic acid, UGT1A9): preferential production

acyl glucuronide formation (FIG. 11) (UGT1A10): significant activity
acyl glucuronide formation (FIG. 11) (hUGT1A8; 1 mM mefenamic acid, UGT1A8): significant activity
SMILES: Cc1cccc(Nc2ccccc2C(=O)O[C@@H]2O[C@H](C(=O)O)[C@@H](O)[C@H](O)[C@H]2O)c1C [mefenamic acid acyl glucuronide]

SMILES: O=C(O)[C@H]1O[C@H](OP(=O)(O)OP(=O)(O)OC[C@H]2O[C@@H](n3ccc(=O)[nH]c3=O)[C@H](O)[C@@H]2O)[C@H](O)[C@@H](O)[C@@H]1O [UDP-glucuronic acid]
concentration of endogenous UDP-glucuronic acid in yeast cells [2]: 4 to 5 mM

SMILES: O=c1c(O)c(-c2ccc(O)c(O)c2)oc2cc(O)cc(O)c12 [Quercetin, quercetin]
site of glucuronidation (FIG. 9) (hUGT1A1 [3]): preferential production of querecetin glucuronide at 3′ phenolic hydroxyl group in B ring

conversion to glucuronide, time course (FIG. 6) (UGT1A6; 0.5 mM 7OHC, after 24 hrs): complete conversion
conversion to glucuronide, glucose dependence (FIG. 7) (UGT1A6; at 8% (w/v) glucose): complete conversion
SMILES: O=c1ccc2ccc(O)cc2o1 [7OHC, 7-hydroxycoumarine, reference compound]
